Here are results for 9 compounds from patent publication US20250325710A1, “Advanced In Vivo Platform to Study Human Neural Maturation and Circuit Integration” (priority 2022, published 2025).

SMILES strings stand for the structures.

For test [1], the system named is blue light-evoked EPSCs in rat pyramidal cortical neurons. The test is classed as cell-based.
The target in test [2] is element-binding protein (CBP) (Homo sapiens, UniProt Q92793). The conditions noted are these: cited from earlier work.
Sequence of element-binding protein (CBP) (Q92793 whole entry): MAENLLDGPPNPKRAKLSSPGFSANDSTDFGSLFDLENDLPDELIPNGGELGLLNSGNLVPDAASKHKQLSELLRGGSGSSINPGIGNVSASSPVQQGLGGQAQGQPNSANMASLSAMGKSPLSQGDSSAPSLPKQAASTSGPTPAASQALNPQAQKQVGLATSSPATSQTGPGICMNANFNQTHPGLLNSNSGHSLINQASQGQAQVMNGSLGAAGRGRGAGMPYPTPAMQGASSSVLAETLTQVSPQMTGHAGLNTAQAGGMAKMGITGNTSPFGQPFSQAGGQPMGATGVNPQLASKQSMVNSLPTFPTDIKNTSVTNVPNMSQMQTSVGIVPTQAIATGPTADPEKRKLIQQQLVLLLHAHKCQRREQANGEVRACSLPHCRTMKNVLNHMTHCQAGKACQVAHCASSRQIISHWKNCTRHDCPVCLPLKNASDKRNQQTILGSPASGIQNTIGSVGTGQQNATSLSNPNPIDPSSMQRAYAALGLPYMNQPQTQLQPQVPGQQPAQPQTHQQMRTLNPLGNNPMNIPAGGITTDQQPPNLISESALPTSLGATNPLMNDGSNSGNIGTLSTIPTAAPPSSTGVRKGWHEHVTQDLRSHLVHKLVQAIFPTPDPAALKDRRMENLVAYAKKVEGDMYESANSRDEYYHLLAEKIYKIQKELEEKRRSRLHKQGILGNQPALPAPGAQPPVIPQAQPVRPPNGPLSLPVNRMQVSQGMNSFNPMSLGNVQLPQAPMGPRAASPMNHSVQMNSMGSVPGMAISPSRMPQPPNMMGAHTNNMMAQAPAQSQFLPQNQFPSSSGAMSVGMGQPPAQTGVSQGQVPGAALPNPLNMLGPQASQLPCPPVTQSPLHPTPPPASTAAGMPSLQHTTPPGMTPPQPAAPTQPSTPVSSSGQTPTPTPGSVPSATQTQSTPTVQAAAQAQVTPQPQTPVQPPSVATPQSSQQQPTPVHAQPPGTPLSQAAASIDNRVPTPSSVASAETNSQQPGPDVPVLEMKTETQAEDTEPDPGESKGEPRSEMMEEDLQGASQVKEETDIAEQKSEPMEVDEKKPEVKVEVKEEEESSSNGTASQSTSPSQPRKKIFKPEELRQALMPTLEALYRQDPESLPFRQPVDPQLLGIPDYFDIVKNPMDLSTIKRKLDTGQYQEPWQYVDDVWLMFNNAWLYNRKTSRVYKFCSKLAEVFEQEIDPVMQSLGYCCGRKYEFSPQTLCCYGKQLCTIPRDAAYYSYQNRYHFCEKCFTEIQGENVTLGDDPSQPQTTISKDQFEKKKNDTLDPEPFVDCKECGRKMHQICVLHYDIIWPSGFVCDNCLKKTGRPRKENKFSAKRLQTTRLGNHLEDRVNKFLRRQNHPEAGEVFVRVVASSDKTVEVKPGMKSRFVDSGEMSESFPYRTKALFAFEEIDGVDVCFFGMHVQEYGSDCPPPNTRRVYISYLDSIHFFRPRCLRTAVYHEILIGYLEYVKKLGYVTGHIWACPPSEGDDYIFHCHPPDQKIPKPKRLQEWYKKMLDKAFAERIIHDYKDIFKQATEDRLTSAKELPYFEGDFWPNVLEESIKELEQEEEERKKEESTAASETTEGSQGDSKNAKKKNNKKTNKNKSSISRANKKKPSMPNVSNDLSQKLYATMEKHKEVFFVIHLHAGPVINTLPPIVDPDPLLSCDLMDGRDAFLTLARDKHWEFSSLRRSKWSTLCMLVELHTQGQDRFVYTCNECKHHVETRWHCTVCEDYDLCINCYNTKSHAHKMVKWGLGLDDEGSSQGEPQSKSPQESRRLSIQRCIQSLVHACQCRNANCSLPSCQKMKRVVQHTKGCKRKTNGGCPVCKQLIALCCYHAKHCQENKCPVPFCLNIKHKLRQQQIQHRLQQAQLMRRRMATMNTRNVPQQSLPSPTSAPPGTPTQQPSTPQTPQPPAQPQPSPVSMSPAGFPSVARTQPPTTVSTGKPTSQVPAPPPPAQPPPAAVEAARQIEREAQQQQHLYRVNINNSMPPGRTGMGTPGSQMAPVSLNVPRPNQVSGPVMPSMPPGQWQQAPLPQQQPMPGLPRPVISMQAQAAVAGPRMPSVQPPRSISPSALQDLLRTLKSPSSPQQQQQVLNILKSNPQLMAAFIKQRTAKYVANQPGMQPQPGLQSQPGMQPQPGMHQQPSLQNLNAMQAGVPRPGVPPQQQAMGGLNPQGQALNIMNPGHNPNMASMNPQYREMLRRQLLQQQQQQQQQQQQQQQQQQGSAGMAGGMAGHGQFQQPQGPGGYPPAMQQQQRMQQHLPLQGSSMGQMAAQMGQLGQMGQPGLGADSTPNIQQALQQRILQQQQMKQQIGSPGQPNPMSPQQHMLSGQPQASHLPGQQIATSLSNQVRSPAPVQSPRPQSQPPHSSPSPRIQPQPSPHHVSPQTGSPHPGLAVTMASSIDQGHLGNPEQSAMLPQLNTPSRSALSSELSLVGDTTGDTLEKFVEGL
Test [3] relates to Wnt processing and secretion. The conditions noted are these: cell-free assay; cited from earlier work.
The subject of test [4] is Wnt-stimulated cellular responses. To be noted: cited from earlier work.
The test system of test [5] is PORCN. The conditions noted are these: read-out: EC50, Porcn inhibitor; cited from earlier work.
Another test concerns Wnt signaling. To be noted: TM3 cells; cited from earlier work.
The test system of test [6] is AMPA receptor. Put plainly: Whole-cell recordings of evoked EPSCs in t-hCS human neurons in acute thalamocortical slices. To be noted: evoked by electrical stimulation of rat S1, internal capsule, white matter or t-hCS, or optogenetic activation of thalamic terminals; NBQX 10 μM. The format is cell-based.
Test [7] deals with AMPA receptor. Put plainly: Whole-cell recordings of blue light-evoked EPSCs in rat pyramidal cortical neurons in acute brain slices (activation of t-hCS axons). The format is cell-based. To be noted: evoked by blue light activation of t-hCS axons; NBQX 10 μM.
Another test deals with Smo heptahelical domain (Homo sapiens, UniProt Q99835). To be noted: cited from earlier work.
Sequence of Smo heptahelical domain (Q99835 28-787): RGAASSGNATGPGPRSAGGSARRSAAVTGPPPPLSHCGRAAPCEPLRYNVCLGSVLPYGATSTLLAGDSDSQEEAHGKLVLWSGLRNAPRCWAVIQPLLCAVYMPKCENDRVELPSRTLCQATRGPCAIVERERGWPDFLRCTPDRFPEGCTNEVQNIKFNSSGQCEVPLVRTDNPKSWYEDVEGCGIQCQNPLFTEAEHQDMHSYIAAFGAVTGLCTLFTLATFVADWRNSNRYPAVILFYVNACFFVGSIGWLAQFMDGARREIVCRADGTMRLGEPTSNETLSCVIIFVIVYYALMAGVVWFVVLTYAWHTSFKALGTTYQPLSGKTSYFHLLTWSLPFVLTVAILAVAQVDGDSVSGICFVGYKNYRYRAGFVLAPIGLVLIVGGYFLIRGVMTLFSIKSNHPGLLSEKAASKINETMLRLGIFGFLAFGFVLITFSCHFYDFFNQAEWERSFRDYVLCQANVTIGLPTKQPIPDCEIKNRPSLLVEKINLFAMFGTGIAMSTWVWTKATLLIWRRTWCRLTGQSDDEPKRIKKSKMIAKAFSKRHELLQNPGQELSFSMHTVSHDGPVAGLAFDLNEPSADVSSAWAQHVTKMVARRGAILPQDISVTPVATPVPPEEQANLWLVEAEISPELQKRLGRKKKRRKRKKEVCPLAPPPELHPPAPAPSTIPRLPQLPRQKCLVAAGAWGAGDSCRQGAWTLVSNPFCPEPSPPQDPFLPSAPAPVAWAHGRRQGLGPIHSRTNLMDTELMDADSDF
Another test concerns the target T1, TNKS2 (Homo sapiens, UniProt Q9H2K2).
T1 sequence (Q9H2K2 1-1166): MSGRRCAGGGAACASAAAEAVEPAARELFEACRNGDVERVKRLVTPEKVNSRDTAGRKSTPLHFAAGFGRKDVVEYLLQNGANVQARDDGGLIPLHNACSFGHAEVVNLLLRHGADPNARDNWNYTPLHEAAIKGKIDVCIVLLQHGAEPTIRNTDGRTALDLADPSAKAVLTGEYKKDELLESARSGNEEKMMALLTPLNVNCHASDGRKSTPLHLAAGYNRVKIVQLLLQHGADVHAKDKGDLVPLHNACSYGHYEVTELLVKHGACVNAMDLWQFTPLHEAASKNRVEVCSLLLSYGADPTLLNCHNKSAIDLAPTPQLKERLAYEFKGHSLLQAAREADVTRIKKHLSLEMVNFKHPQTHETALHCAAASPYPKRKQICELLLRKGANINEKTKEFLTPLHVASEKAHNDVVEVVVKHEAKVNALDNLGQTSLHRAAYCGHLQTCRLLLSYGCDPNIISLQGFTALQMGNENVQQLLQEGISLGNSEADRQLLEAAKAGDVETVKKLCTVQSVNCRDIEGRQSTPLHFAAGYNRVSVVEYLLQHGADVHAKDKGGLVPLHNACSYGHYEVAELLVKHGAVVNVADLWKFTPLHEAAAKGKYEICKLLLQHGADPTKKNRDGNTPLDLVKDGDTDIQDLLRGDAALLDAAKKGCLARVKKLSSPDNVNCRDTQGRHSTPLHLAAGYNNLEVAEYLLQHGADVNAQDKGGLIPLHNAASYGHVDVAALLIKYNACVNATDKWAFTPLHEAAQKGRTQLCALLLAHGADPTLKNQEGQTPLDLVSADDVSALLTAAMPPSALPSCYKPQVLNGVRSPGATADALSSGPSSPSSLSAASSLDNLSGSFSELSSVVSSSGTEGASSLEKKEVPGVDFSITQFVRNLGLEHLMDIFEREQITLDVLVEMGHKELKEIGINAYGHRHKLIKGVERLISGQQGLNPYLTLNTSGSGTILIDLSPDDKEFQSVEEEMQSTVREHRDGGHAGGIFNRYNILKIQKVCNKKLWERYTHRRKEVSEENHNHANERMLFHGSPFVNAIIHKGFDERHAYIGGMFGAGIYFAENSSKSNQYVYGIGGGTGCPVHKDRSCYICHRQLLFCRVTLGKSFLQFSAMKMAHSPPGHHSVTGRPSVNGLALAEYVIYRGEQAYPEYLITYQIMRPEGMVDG
To be noted: cited from earlier work.

The test system of test [8] is PORCN. To be noted: HEK293 cells; read-out: IC50, Wnt3A-mediated activation of a multimerized TCF-binding site driving luciferase; cited from earlier work.

As to `Nc1ccncc1` [4-AP, 4 Amino-Pyridine], the “Effect on blue light-evoked responses in rat cortical neurons” value in [1] is “recovered”.

`O=C1[C@H](Cc2ccc(O)cc2)N2C(=O)CCN(C(=O)NCc3ccccc3)[C@H]2CN1Cc1cccc2ccccc12` [ICG-001]: the 50% inhibitory concentration (IC50) in [2] is 3000 nM.

For `Cc1ccc2nc(NC(=O)CSc3nc4c(c(=O)n3-c3ccccc3)SCC4)sc2c1` [IWP-2], in [3], the IC50 is 27 nM. Further, in [4], the “Effect against Wnt-stimulated cellular responses” value is given as “no effect”.

For `O=C(CSc1nc2c(c(=O)n1-c1ccccc1)SCC2)Nc1ccc(-c2ccccc2)cn1` [IWP-L6], the EC50 in the test with PORCN [5] was 0.5 nM.

As for `Cc1cc(-c2ncc(CC(=O)Nc3ccc(-c4cnccn4)cn3)cc2C)ccn1` [LGK-974], the concentration for half-maximal inhibition (IC50) in the test on Wnt signaling is 0.4 nM.

Turning to `NS(=O)(=O)c1cccc2c1c([N+](=O)[O-])cc1nc(O)c(O)nc12` [NBQX], in the test on AMPA receptor [6], the “Effect on short latency EPSCs in human t-hCS neurons” value is recorded as “blocked”. In addition, the “Effect on short-latency EPSCs in rat pyramidal cortical neurons” value in the test on AMPA receptor [7] is recorded as “blocked”.

As to `CNC1CCC(N(Cc2cccc(-c3ccncc3)c2)C(=O)c2sc3ccccc3c2Cl)CC1` (centres unmarked) [SAG], on Smo heptahelical domain, the Kd is 59 nM.

On to `COc1ccc(-n2c(SCCCN3C(=O)c4cccc5cccc(c45)C3=O)nnc2-c2ccncc2)cc1` [WIKI4], for which the half-inhibitory concentration (IC50) at TNKS2 was 15 nM.

With `Cc1cc(-c2ccc(CC(=O)Nc3ccc(-c4cccnc4)cc3)cc2)ccn1` [Wnt-C59], the IC50 in the test on PORCN [8] is 0.074 nM.
